From the SangsterLogP compilation

| SMILES | logP |
| --- | --- |
| CCCCCCNC(=O)N1C(=O)N(C)CC1O (stereo unspecified) | 2.39 |
| CN1CC(O)N(C(=O)NCCCl)C1=O (stereo unspecified) | 0.71 |
| CN1CC(O)N(C(=O)Nc2ccccc2)C1=O (stereo unspecified) | 1.44 |
| CN1CC(O)N(C(=O)NC2CCCCCC2)C1=O (stereo unspecified) | 2.29 |
| CN1CC(O)N(C(=O)NC(C)(C)C)C1=O (stereo unspecified) | 1.38 |
| CC1CCCCC1NC(=O)N1C(=O)N(C)CC1O (stereo unspecified) | 2.2 |
| CCC(C)NC(=O)N1C(=O)N(C)CC1O (stereo unspecified) | 1.28 |
| CCCNC(=O)N1C(=O)N(C)CC1O (stereo unspecified) | 0.99 |
| CCCCCNC(=O)N1C(=O)N(C)CC1O (stereo unspecified) | 1.75 |
| CC1CCC(NC(=O)N2C(=O)N(C)CC2O)CC1 (stereo unspecified) | 2.41 |
| CCCCNC(=O)N1C(=O)N(C)CC1O (stereo unspecified) | 1.38 |

Results, then the molecule that gave them:

| logP | SMILES |
| --- | --- |
| 1.32 | CC(C)CNC(=O)N1C(=O)N(C)CC1O (stereo unspecified) |
| 3.46 | CCCCCCCCNC(=O)N1C(=O)N(C)CC1O (stereo unspecified) |
| 1.87 | CN1CC(O)N(C(=O)NC2CCCCC2)C1=O (stereo unspecified) |
| 0.96 | CC(C)NC(=O)N1C(=O)N(C)CC1O (stereo unspecified) |
| 1.47 | CN1CC(O)N(C(=O)NC2CCCC2)C1=O (stereo unspecified) |
